Consider 23 compounds from patent US9840478B2 (MERCK SHARP & DOHME CORP., priority 2013, dated 2017).

The first assay deals with HIV-1 (H9IIIB strain). The assay can be described thus: Cell-based HIV infection assay using a reporter (Cell-Based), MT4-GFP cells. Conditions: Human immunodeficiency virus 1, MT4-GFP cells infected with HIV-1 H9IIIB; 50% normal human serum; mean of at least two independent experiments; read-out: Cell-based IP. An outline of the steps:
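MT4-GFP cells (HIV LTR-driven GFP) infected 24 h with HIV-1 H9IIIB at low MOI, then washed and plated with compounds in RPMI + 50% normal human serum, 0.4% DMSO final. Green cells counted at 24 and 48 h; R0 = 48 h/24 h ratio, inhibition normalized to DMSO and triple-drug control; IC50 from 4-parameter fit.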
For `CC(=O)Nc1nc(C)c(S(=O)(=O)N2CCNC[C@@H]2CCc2c(F)cncc2NC(=O)C[C@@H](c2ccc(F)cc2)c2cc(F)cc(F)c2)s1` [Example 318, (3S)-N-(4-{2-[(2S)-1-{[2-(acetylamino)-4-methyl-1,3-thiazol-5-yl]sulfonyl}piperazin-2-yl]ethyl}-5-fluoropyridin-3-yl)-3-(3,5-difluorophenyl)-3-(4-fluorophenyl)propanamide], the IC50 came to 97 nM.
Still for that read-out and setting: in the case of `O=Cc1ccc(S(=O)(=O)N2CCNC[C@@H]2CCc2c(F)cncc2NC(=O)C[C@@H](c2ccc(F)cc2)c2cc(F)cc(F)c2)cc1` [Example 319, (3S)-3-(3,5-difluorophenyl)-N-[5-fluoro-4-(2-{(2S)-1-[(4-formylphenyl)sulfonyl]piperazin-2-yl}ethyl)pyridin-3-yl]-3-(4-fluorophenyl)propanamide] it was 59 nM; in that of `CC(=O)Nc1cccc(S(=O)(=O)N2CCNC[C@@H]2CCc2c(F)cncc2NC(=O)C[C@@H](c2ccc(F)cc2)c2cc(F)cc(F)c2)c1` [Example 320, (3S)-N-(4-{2-[(2S)-1-{[3-(acetylamino)phenyl]sul-fonyl}piperazin-2-yl]ethyl}-5-fluoropyridin-3-yl)-3-(3,5-difluorophenyl)-3-(4-fluorophenyl)propanamide], 36 nM.
Still for that read-out and setting: in the case of `O=C(C[C@@H](c1ccc(F)cc1)c1cc(F)cc(F)c1)Nc1cncc(F)c1CC[C@H]1CNCCN1S(=O)(=O)c1cnc2ccccc2c1` [Example 321, (3S)-3-(3,5-difluorophenyl)-3-(4-fluorophenyl)-N-(5-fluoro-4-{2-[(2S)-1-(quinolin-3-ylsulfonyl)piperazin-2-yl]ethyl}pyridin-3-yl)propanamide] it was 29 nM; in that of `O=C(C[C@@H](c1ccc(F)cc1)c1cc(F)cc(F)c1)Nc1cncc(F)c1CC[C@H]1CNCCN1S(=O)(=O)N1CCc2ccccc2C1` [Example 322, (3S)-3-(3,5-difluorophenyl)-N-(4-{2-[(2S)-1-(3,4-dihydroisoquinolin-2(1H)-ylsulfonyl)piperazin-2-yl]ethyl}-5-fluoropyridin-3-yl)-3-(4-fluorophenyl)propanamide], 530 nM; in that of `O=C(C[C@@H](c1ccc(F)cc1)c1cc(F)cc(F)c1)Nc1cncc(F)c1CC[C@H]1CNCCN1S(=O)(=O)N1CCCC1` [Example 323, (3S)-3-(3,5-difluorophenyl)-3-(4-fluorophenyl)-N-(5-fluoro-4-{2-[(2S)-1-(pyrrolidin-1-ylsulfonyl)piperazin-2-yl]ethyl}pyridin-3-yl)propanamide], 4.8 nM.
As for `CC(C)NS(=O)(=O)N1CCNC[C@@H]1CCc1c(F)cncc1NC(=O)C[C@@H](c1ccc(F)cc1)c1cc(F)cc(F)c1` [Example 324, (3S)-3-(3,5-difluorophenyl)-N-[5-fluoro-4-(2-{(2S)-1-[(1-methylethyl)sulfamoyl]piperazin-2-yl}ethyl)pyridin-3-yl]-3-(4-fluorophenyl)propanamide], the IC50 is 40 nM.
In the case of `O=C(C[C@@H](c1ccc(F)cc1)c1cc(F)cc(F)c1)Nc1cncc(F)c1CC[C@H]1CNCCN1S(=O)(=O)N1CCCCC1` [Example 325, (3S)-3-(3,5-difluorophenyl)-3-(4-fluorophenyl)-N-(5-fluoro-4-{2-[(2S)-1-(piperidin-1-ylsulfonyl)piperazin-2-yl]ethyl}pyridin-3-yl)propanamide], the IC50 was 13 nM.
With `O=C(C[C@@H](c1ccc(F)cc1)c1cc(F)cc(F)c1)Nc1cncc(F)c1CC[C@H]1CNCCN1S(=O)(=O)N1CCOCC1` [Example 326, (3S)-3-(3,5-difluorophenyl)-N-(5-fluoro-4-{2-[(2S)-1-(morpholin-4-ylsulfonyl)piperazin-2-yl]ethyl}pyridin-3-yl)-3-(4-fluorophenyl)propanamide], the IC50 was found to be 8 nM.
For `O=C(C[C@@H](c1ccc(F)cc1)c1cc(F)cc(F)c1)Nc1cncc(F)c1CC[C@H]1CNCCN1S(=O)(=O)N1CC[C@@H](F)C1` [Example 327, (3S)-3-(3,5-difluorophenyl)-N-(5-fluoro-4-{2-[(2)S-1-{[(3R)-3-fluoropyrrolidin-1-yl]sulfonyl}piperazin-2-yl]ethyl}pyridin-3-yl)-3-(4-fluorophenyl)propanamide], the IC50 amounted to 9.4 nM.
`O=C(C[C@@H](c1ccc(F)cc1)c1cc(F)cc(F)c1)Nc1cncc(F)c1CC[C@H]1CNCCN1S(=O)(=O)N1CCC(F)(F)C1` [Example 329, (3S)-3-(3,5-difluorophenyl)-N-[4-(2-{(2)S-1-[(3,3-difluoropyrrolidin-1-yl)sulfonyl]piperazin-2-yl}ethyl)-5-fluoropyridin-3-yl]-3-(4-fluorophenyl)propanamide]: the IC50 came out at 47 nM.
Same read-out and setting: in the case of `O=C(C[C@@H](c1ccc(F)cc1)c1cc(F)cc(F)c1)Nc1cncc(F)c1CC[C@H]1CNCCN1S(=O)(=O)N1CCC(F)(F)CC1` [Example 330, (3S)-3-(3,5-difluorophenyl)-N-[4-(2-{(2S)-1-[(4,4-difluoropiperidin-1-yl)sulfonyl]piperazin-2-yl}ethyl)-5-fluoropyridin-3-yl]-3-(4-fluorophenyl)propanamide] it was 43 nM; in that of `O=C(C[C@@H](c1ccc(F)cc1)c1cc(F)cc(F)c1)Nc1cncc(F)c1CC[C@H]1CNCCN1S(=O)(=O)N1CCC(F)CC1` [Example 331, (3S)-3-(3,5-difluorophenyl)-N-[5-fluoro-4-(2-{(2S)-1-[(4-fluoropiperidin-1-yl)sulfonyl]piperazin-2-yl}ethyl)pyridin-3-yl]-3-(4-fluorophenyl)propanamide], 19 nM; in that of `O=C(C[C@@H](c1ccc(F)cc1)c1cc(F)cc(F)c1)Nc1cncc(F)c1CC[C@H]1CNCCN1S(=O)(=O)N1CCCC(F)(F)C1` [Example 332, (3S)-3-(3,5-difluorophenyl)-N-[4-(2-{(2S)-1-[(3,3-difluoropiperidin-1-yl)sulfonyl]piperazin-2-yl}ethyl)-5-fluoropyridin-3-yl]-3-(4-fluorophenyl)propanamide], 410 nM.
For `O=C(C[C@@H](c1ccc(F)cc1)c1cc(F)cc(F)c1)Nc1cncc(F)c1CC[C@H]1CNCCN1S(=O)(=O)N1CCCC(F)C1` (stereo partly drawn) [Example 333, (3S)-3-(3,5-difluorophenyl)-N-[5-fluoro-4-(2-{(2S)-1-[(3-fluoropiperidin-1-yl)sulfonyl]piperazin-2-yl}ethyl)pyridin-3-yl]-3-(4-fluorophenyl)propanamide], the IC50 is 64 nM.
Regarding `CC(C)CC1CCCN1S(=O)(=O)N1CCNC[C@@H]1CCc1c(F)cncc1NC(=O)C[C@@H](c1ccc(F)cc1)c1cc(F)cc(F)c1` (stereo partly drawn) [Example 337, (3S)-3-(3,5-difluorophenyl)-N-(5-fluoro-4-{2-[(2S)-1-{[2-(2-methylpropyl)pyrrolidin-1-yl]sulfonyl}piperazin-2-yl]ethyl}pyridin-3-yl)-3-(4-fluorophenyl)propanamide], the IC50 is 130 nM.
Same read-out and setting: in the case of `O=C(C[C@@H](c1ccc(F)cc1)c1cc(F)cc(F)c1)Nc1cncc(F)c1CC[C@H]1CNCCN1S(=O)(=O)NCC(F)CCl` (stereo partly drawn) [Example 339, (3S)-N-[4-(2-{(2S)-1-[(3-chloro-2-fluoropropyl)sulfamoyl]piperazin-2-yl}ethyl)-5-fluoropyridin-3-yl]-3-(3,5-difluorophenyl)-3-(4-fluorophenyl)propanamide] it was 40 nM; in that of `CCN(CC)S(=O)(=O)N1CCNC[C@@H]1CCc1c(F)cncc1NC(=O)C[C@@H](c1ccc(F)cc1)c1cc(F)cc(F)c1` [Example 340, (3S)-N-(4-{2-[(2S)-1-(diethylsulfamoyl)pipera-zin-2-yl]ethyl}-5-fluoropyridin-3-yl)-3-(3,5-difluorophenyl)-3-(4-fluorophenyl)propanamide], 210 nM; in that of `O=C(C[C@@H](c1ccc(F)cc1)c1cc(F)cc(F)c1)Nc1cncc(F)c1CC[C@H]1CNCCN1C(=O)N1CCCCC1` [Example 341, (3S)-3-(3,5-difluorophenyl)-3-(4-fluorophenyl)-N-(5-fluoro-4-{2-[(2S)-1-(piperidin-1-ylcarbonyl)piperazin-2-yl]ethyl}pyridin-3-yl)propanamide], 450 nM.
On the same count and under the same terms, in the case of `O=C(C[C@@H](c1ccc(F)cc1)c1cc(F)cc(F)c1)Nc1cncc(F)c1CC[C@H]1CNCCN1C(=O)COc1ccccc1` [Example 343, (3S)-3-(3,5-difluorophenyl)-N-(5-fluoro-4-{2-[(2S)-1-(phenoxyacetyl)piperazin-2-yl]ethyl}pyridin-3-yl)-3-(4-fluorophenyl)propanamide] it was 125 nM; in that of `O=C(C[C@@H](c1ccc(F)cc1)c1cc(F)cc(F)c1)Nc1cncc(F)c1CC[C@H]1CNCCN1C(=O)c1ccc(OC(F)(F)F)cc1` [Example 344, (3S)-3-(3,5-difluorophenyl)-3-(4-fluorophenyl)-N-(5-fluoro-4-{2-[(2S)-1-{[4-(trifluoromethoxy)phenyl]carbonyl}piperazin-2-yl]ethyl}pyridin-3-yl)propanamide], 1800 nM.
In the case of `O=C(C[C@@H](c1ccc(F)cc1)c1cc(F)cc(F)c1)Nc1cncc(F)c1CC[C@H]1CNCCN1C(=O)c1ccc2c(c1)OC(F)(F)O2` [Example 345, (3S)-N-[4-(2-{(2S)-1-[(2,2-difluoro-1,3-benzodioxol-5-yl)carbonyl]piperazin-2-yl}ethyl)-5-fluoropyridin-3-yl]-3-(3,5-difluorophenyl)-3-(4-fluorophenyl)propanamide], the IC50 stood at 1600 nM.

Staying with this assay, now noted: MT4-GFP cells infected with HIV-1 H9IIIB; 50% normal human serum; mean of at least two independent experiments; read-out: Cell-based IP.
For the compound `O=C(C[C@@H](c1ccc(F)cc1)c1cc(F)cc(F)c1)Nc1cncc(F)c1CC[C@H]1CNCCN1S(=O)(=O)N1CC[C@@H](F)C1` [Example 328, (3S)-3-(3,5-difluorophenyl)-N-(5-fluoro-4-{2-[(2S)-1-{[(3S)-3-fluoropyrrolidin-1-yl]sulfonyl}piperazin-2-yl]ethyl}pyridin-3-yl)-3-(4-fluorophenyl)propanmide], the IC50 is 16 nM.
